Columns and labels:
[1] = AUC(0 to t) in male ICR mouse at 10 mg/kg, po measured upto 24 hrs by LC/MS/MS analysis; type: ADME, organism-based; details: in vivo
[2] = Inhibition of IDH2 R140Q mutant in human TF-1 cells incubated for 72 hrs by measuring 2-HG production by fluorescence based analysis; type: functional, cell-based; details: TF-1, 72 h
[3] = Inhibition of IDH2 R172K mutant in human HEK293 cells incubated for 72 hrs by measuring 2-HG production by fluorescence based analysis; type: functional, cell-based; details: HEK293, 72 h
[4] = AUC(0 to t) in male Sprague-Dawley rat at 1 mg/kg, iv measured after 144 hrs by LC/MS/MS analysis; type: ADME, organism-based; details: in vivo
[5] = AUC(0 to t) in male Sprague-Dawley rat at 5 mg/kg, po measured after 144 hrs by LC/MS/MS analysis; type: ADME, organism-based; details: in vivo
[6] = AUC(0 to infinity) in male Sprague-Dawley rat at 1 mg/kg, iv measured after 24 hrs by LC/MS/MS analysis; type: ADME, organism-based; details: in vivo
[7] = AUC(0 to infinity) in male Sprague-Dawley rat at 5 mg/kg, po measured after 24 hrs by LC/MS/MS analysis; type: ADME, organism-based; details: in vivo
[8] = Cmax in male Sprague-Dawley rat at 5 mg/kg, po measured after 24 hrs by LC/MS/MS analysis; type: ADME, organism-based; details: in vivo
[9] = Oral bioavailability in male Sprague-Dawley rat at 5 mg/kg measured after 24 hrs by LC/MS/MS analysis; type: ADME, organism-based; details: in vivo
[10] = In vivo inhibition of 2-HG in BALB/c nude mouse xenografted with human U-87 MG cells harboring IDH2 R140Q mutant at 25 mg/kg, po measured after 40 hrs post dose; type: functional; details: Mus musculus, BALB/c, U-87 MG
[11] = Ratio of drug concentration in brain to plasma of BALB/c nude mouse xenografted with human U-87 MG cells harboring IDH2 R140Q mutant at 50 mg/kg measured after 16 hrs by LC/MS/MS analysis; type: ADME, organism-based; details: read-out: BPR

Compound: C[C@@H](Nc1nc(N[C@H](C)C(F)(F)F)nc(C2=C(F)[C@H](O)C(F)(F)CC2)n1)C(F)(F)F [RANOSIDENIB]
- AUC(0-t) at 24 h [1]: 35000 ng·h/mL
- IC50 [2]: 21 nM
- IC50 [3]: 425 nM
- AUC(0-t) at 144 h [4]: 17100 ng·h/mL
- AUC(0-t) at 144 h [5]: 96600 ng·h/mL
- AUC(0-inf) [6]: 19800 ng·h/mL
- AUC(0-inf) [7]: 112000 ng·h/mL
- Cmax [8]: 1490 ng/mL
- bioavailability [9]: 113%
- inhibition in vivo at 25 mg/kg [10]: 93%
- Kp at 16 h [11]: 2.8

From ChEMBL document CHEMBL6103672, “Discovery of HMPL-306 (Ranosidenib), a New Potent and Selective Dual Inhibitor of Mutant IDH1 and 2 in Clinical Development for Cancer Treatment” (ACS Med Chem Lett, 2025)
